What was measured:
[1] = molecular target: T1, Surfactant Protein D (SP-D) (Homo sapiens, UniProt P35247); assay: SPR competition of SP-D ([…]) binding to immobilised biotinylated gp120 IIIB; details: 5 mM CaCl2, SP-D in solution, lectin site (CRD), competes with gp120 glycans
T1 construct: gene SFTPD; dodecamer (four trimeric units)
T1 sequence (P35247 21-375): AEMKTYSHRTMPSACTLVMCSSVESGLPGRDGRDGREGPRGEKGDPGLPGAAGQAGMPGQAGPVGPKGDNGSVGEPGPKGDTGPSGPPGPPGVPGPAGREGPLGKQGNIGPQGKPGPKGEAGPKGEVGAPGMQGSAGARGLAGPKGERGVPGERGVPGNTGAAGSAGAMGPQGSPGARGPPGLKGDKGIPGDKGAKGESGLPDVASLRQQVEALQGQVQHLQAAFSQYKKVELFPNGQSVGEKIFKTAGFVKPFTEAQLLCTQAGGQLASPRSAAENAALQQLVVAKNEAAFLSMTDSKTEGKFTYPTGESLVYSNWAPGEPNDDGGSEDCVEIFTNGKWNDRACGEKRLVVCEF

[2] = molecular target: T1, Surfactant Protein D (SP-D); assay: SPR competition of inactivated HIV BaL particles binding to immobilised SP-D; details: pH 7.4, calcium, 25 C, lectin site (CRD), competes with HIV glycans
[3] = molecular target: recombinant gp120 IIIB (HIV strain IIIB) (UniProt P04578); assay: ELISA; competition: gp120 IIIB (2 µg/mL) immobilised; biotinylated soluble DC-SIGN, biotinylated soluble CD4 or CVN added together with SP-D (0-40 µg/mL); absorbance without competitor taken as 100%

Molecule	IC50 ([1]; read-out: IC50) [mM]	IC50 [1] [mM]	other results
OC[C@H]1OC(O)[C@@H](O)[C@@H](O)[C@@H]1O (stereo partly drawn) [mannose]	7.8		
OC[C@H]1O[C@H](O[C@H]2[C@H](O)[C@@H](O)C(O)O[C@@H]2CO)[C@H](O)[C@@H](O)[C@@H]1O (stereo partly drawn) [maltose]		6.5	
OC[C@H]1OC(O)[C@H](O)[C@@H](O)[C@@H]1O (stereo partly drawn) [glucose]			IC50 [2]: 5.4 mM
CC(=O)N[C@H]1C(O)O[C@H](CO)[C@@H](O)[C@@H]1O (stereo partly drawn) [GlcNAc]		22.9	
Surfactant Protein D (from UniProt P35247 21-375) (natural protein)			maximum inhibition of sDC-SIGN binding to gp120 [3]: 80%
OC[C@H]1OC(O)[C@H](O)[C@@H](O)[C@H]1O (stereo partly drawn) [D-galactose]	32.2		

Source: article PMC3601116, “Surfactant Protein D Modulates HIV Infection of Both T-Cells and Dendritic Cells” (PLoS ONE, 2013)
